Laboratory results from patent US11169156B2, “Long wavelength voltage sensitive dyes” (The Regents of the University of California, priority 2015, dated 2021).
Entries after “also recorded” stand apart in the source; their conditions may differ.

Experiments:
[1] = In vitro cross excitation in aqueous buffer (emission scans with differing excitation wavelengths); type: physicochemical; conditions: emission 680 nm
Method: FIG. 12A-C provides for in vitro cross excitation of BeRST 1 and BR. Emission scans of (A) BeRST 1 and (B) BR in aqueous buffer (50 mM TBS, pH 7.5, 0.1% SDS) with differing excitation wavelengths. (C) Relative fluorescence emission intensity at 680 nm vs. excitation wavelength for BeRST 1 (black bars) and BR (grey bars).
Stock solutions of BR and BeRST 1 were prepared in DMSO (1.0-10 mM) and diluted with TBS (50 mM Tris-HCl, pH 7.5, 0.15 M NaCl) solution containing 0.10% (w/w) SDS (1:100 to 1:1000 dilution). UV-Vis absorbance and fluorescence spectra were recorded using a Shimadzu 2501 Spectrophotometer (Shimadzu) and a Quantamaster Master 4 L-format scanning spectrofluorometer (Photon Technologies International). The fluorometer is equipped with an LPS-220B 75-W xenon lamp and power supply, A-1010B lamp housing with integrated igniter, switchable 814 photon-counting/analog photomultiplier detection unit, and MD5020 motor driver. Samples were measured in 1-cm path length quartz cuvettes (Starna Cells). Relative quantum yields were measured in TBS solution containing 0.10% (w/w) SDS or in CH3OH and referenced to cresyl violet in CH3OH, which has a quantum yield of 0.54.

HEK cells = assay: Voltage sensitivity in HEK cells, whole-cell voltage clamp with fluorescence imaging; type: cell-based, Human; conditions: for voltage sensitivity, fractional change in fluorescence: 680 nm emission, n=4 cells
Method: Functional imaging of BeRST 1 was performed using a 20× objective paired with image capture from the EMCCD camera at a sampling rate of 0.5 kHz. BeRST 1 was excited using the 633 nm LED with an intensity of 6.7 W/cm^2. For initial voltage characterization (see, FIG. 4) emission was collection with the QUAD filter and dichroic (see above). For investigation into voltage sensitivity during excitation cross-talk (see, FIG. 11) BeRST 1 was excited by a 633 nm LED as above and 390 nm light (violet LED, 20 nm bandpass) with an intensity of 3.3 W/cm^2 and emission was collected with a 680/10 nm bandpass emission filter.
(§1) Analysis of voltage sensitivity in HEK cells was performed using custom Matlab routines. Briefly, a region of interest (ROI) was selected automatically based on fluorescence intensity and applied as a mask to all image frames. Fluorescence intensity values were calculated at known baseline and voltage step epochs. For analysis of BeRST 1 voltage responses in neurons, regions of interest encompassing cell bodies were drawn in ImageJ and the mean fluorescence intensity for each frame extracted. The photostability of BeRST 1 allowed for the calculation of ΔF/F values by subtracting a mean background value from all raw fluorescence frames, bypassing the noise amplification which arises from subtracting background for each frame. All example traces were not averaged. For comparisons of action potentials recorded electrophysiologically and optically, imaging traces were analyzed using spike detection algorithms in the Clampfit 10 software (Molecular Devices). For cross-excitation quantification images were background subtracted. ROIs were made by thresholding to the 25% of the maximum pixel intensity to remove non-stained areas. Mean intensity values for stained neurons were calculated.
For whole-cell, voltage clamp recordings in HEK 293T cells were held at −60 mV and 100 ms hyper- and de-polarizing steps applied from −100 to +100 mV in 20 mV increments.

rat hippocampal neurons [2] = assay: Effect of dye loading on action potential firing, whole-cell patch clamp without imaging; type: cell-based; conditions: neurons with or without 1 μM dye, n=12 and 11
Method: To test if loading of BeRST 1 onto the membrane of neurons has any effect on their action potential firing, ten 500 ms current steps were injected into neurons, in increments of […]. The first action potential from each sweep was analyzed in Clampfit 10 software (Molecular Devices) to give amplitude and kinetic data. The cell capacitance determined by the Clampex software during recording. To evoke single action potentials for electrophysiological and imaging comparisons, short (10 ms) current injections were applied which were 2× the threshold required to evoke a single action potential. Analysis of action potentials was performed using spike detection algorithms in the Clampfit 10 software.

rat hippocampal neurons [3] = assay: Imaging of action potentials evoked by extracellular field stimulation in hippocampal neurons; type: cell-based
Method: Hippocampi were dissected from embryonic day 18 Sprague Dawley rats (Charles River Laboratory) in cold sterile HBSS (zero Ca^2+, zero Mg^2+). All dissection products were supplied by Invitrogen, unless otherwise stated. Hippocampal tissue was treated with trypsin (2.5%) for 15 min at 37° C. The tissue was triturated using fire polished Pasteur pipettes, in minimum essential media (MEM) supplemented with 5% fetal bovine serum (FBS; Thermo Scientific), 2% B-27, 2% 1M D-glucose (Fisher Scientific) and 1% glutamax. The dissociated cells were plated onto 12 mm diameter coverslips (Fisher Scientific) pre-treated with PDL (as above) at a density of 30,000-40,000 cells per coverslip in MEM supplemented media (as above). Neurons were maintained at 37° C. in a humidified incubator with 5% CO2. At 3 days in vitro (DIV) half of the MEM supplemented media was removed and replaced with Neurobasal media containing 2% B-27 supplement and 1% glutamax. Transfection of genetic tools was carried out using Lipofectamine 3000 at 7 DIV. Functional imaging was performed on mature neurons 13-20 DIV, except electrophysiological experiments which were performed on 12-15 DIV neurons.
Extracellular field stimulation was delivered by Grass Stimulator connected to a recording chamber containing two platinum electrodes (Warner), with triggering provided through a Digidata 1332A digitizer and pCLAMP 10 software (Molecular Devices). Action potentials were triggered by 1 ms 80 V field potentials delivered at 5 Hz. To prevent recurrent activity the HBS bath solution was supplemented with synaptic blockers 10 μM 2,3-Dioxo-6-nitro-1,2,3, 4-tetrahydrobenzo[f]quinoxaline-7-sulfonamide (NBQX; Santa Cruz Biotechnology) and 25 μM DL-2-Amino-5-phosphonopentanoic acid (APV; Sigma-Aldrich). Functional imaging of BeRST 1 was performed using the EMCCD camera and a 63× objective. BeRST 1 was excited with a 631 nm light (LED; 631 nm, 28 nm bandpass) with an intensity of 127 W/cm^2. Emission from BeRST 1 was collected with a 680/10 nm bandpass emission filter (after passing through a quadruple dichroic mirror (432/38 nm, 509/22 nm, 586/40 nm, 654 nm LP) or for GCaMP6s and ASAP experiments a QUAD filter (quadruple emission filter (430/32 nm, 508/14 nm, 586/30 nm, 708/98 nm) after passing through the quadruple dichroic mirror. Optical sampling rate of BeRST 1 imaging was 0.5-0.53 kHz, except when imaging with ASAP1 (1.25 kHz). Green spectrum genetic tools (GFP, GCaMP6s and ASAP1) were illuminated using 475 nm light (LED; 475 nm, 34 nm bandpass). For functional imaging an intensity of 33 W/cm^2 for GCaMP6s and 200 W/cm^2 for the more weakly fluorescent ASAP1 was used, which is the maximum 475 nm LED intensity for the system. Emission was collected with a 540/50 nm bandpass filter after passing through a 510 nm longpass dichroic. Functional imaging of GCaMP6s and ASAP was performed at 40 Hz and 1.25 kHz, respectively. Images showing cellular morphology were performed by switching to a lower magnification 20× objective in conjunction with either the EMCCD (GCaMP6s/ASAP1) or sCMOS (GFP) camera.
as §1, with “For comparisons of action potentials recorded electrophysiologically and optically, imaging traces were analyzed using spike detection algorithms in the Clampfit 10 software (Molecular Devices). For cross-excitation quantification images were background subtracted. ROIs were made by thresholding to the 25% of the maximum pixel intensity to remove non-stained areas. Mean intensity values for stained neurons were calculated.” left out

[4] = Spectroscopic studies (absorbance, emission, quantum yield) in vitro; type: physicochemical; conditions: for quantum yield (Φfl): referenced to cresyl violet; for emission maximum: aqueous buffer
rat hippocampal neurons [5] = assay: Action potential imaging in patch-clamped (current clamp) hippocampal neurons; type: cell-based; conditions: 1.8 kHz optical sampling, n=7 cells
Method: Hippocampi were dissected from embryonic day 18 Sprague Dawley rats (Charles River Laboratory) in cold sterile HBSS (zero Ca^2+, zero Mg^2+). All dissection products were supplied by Invitrogen, unless otherwise stated. Hippocampal tissue was treated with trypsin (2.5%) for 15 min at 37° C. The tissue was triturated using fire polished Pasteur pipettes, in minimum essential media (MEM) supplemented with 5% fetal bovine serum (FBS; Thermo Scientific), 2% B-27, 2% 1M D-glucose (Fisher Scientific) and 1% glutamax. […]
as §1, with “All example traces were not averaged. For comparisons of action potentials recorded electrophysiologically and optically, imaging traces were analyzed using spike detection algorithms in the Clampfit 10 software (Molecular Devices).” left out, “ROIs were made by thresholding to the 25% of the maximum pixel intensity to remove non-stained areas.” left out, “calculated. […]” for “calculated.”

[6] = in CH3OH; cited from earlier work
[7] = aqueous buffer (50 mM TBS, pH 7.5, 0.1% SDS)

Compound: COc1cc(N(C)C)ccc1/C=C/c1ccc(/C=C/c2ccc(C3=C4C=CC(=[N+](C)C)C=C4[Si](C)(C)c4cc(N(C)C)ccc43)c(S(=O)(=O)[O-])c2)cc1 [BeRST 1, 5-((E)-4-((E)-4-(Dimethylamino)-2-methoxystyryl)styryl)-2-(7-(dimethylamino)-3-(dimethyliminio)-5,5-dimethyl-3,5-dihydrodibenzo[b,e]silin-10-yl)benzenesulfonate]
- emission with 390 nm excitation, share of full emission [1]: 35%
- emission with 475 nm excitation compared to excitation at 630 nm [1]: ~7%
- voltage sensitivity (HEK cells; HEK cells loaded with 1 μM dye, whole-cell voltage clamp, n=15 cells): approximately 24%±5%
- voltage sensitivity, fractional change in fluorescence (HEK cells; excited at 390 nm (3.3 W/cm^2)): 28 % ΔF/F per 100 mV
- voltage sensitivity, fractional change in fluorescence (HEK cells; excited at 631 nm (6.7 W/cm^2)): 26 % ΔF/F per 100 mV
- linearity of fluorescence response to membrane potential (HEK cells; range spanning ±100 mV): linear
- effect on action potential amplitude, duration, rise time, decay time, cellular capacitance (rat hippocampal neurons [2]): No difference; also recorded: No statistically significant differences
- change in fluorescence per action potential (rat hippocampal neurons [3]; field stimulation, GFP-expressing cells, n=5 pairs of cells): 8.7±0.8 % ΔF/F
- change in fluorescence per action potential (rat hippocampal neurons [3]; field stimulation, cells not expressing GFP): approximately 9.2 % ΔF/F
- optical response for action potentials (rat hippocampal neurons [3]; field stimulation, n=5 cells): 17.8 % ΔF/F
- voltage transient for a single evoked action potential (rat hippocampal neurons [3]; neuron expressing GCaMP6s and stained with BeRST 1): approximately 15 % ΔF/F
- increase in relative fluorescence to evoked train of action potentials (rat hippocampal neurons [3]; neurons expressing ASAP1 and stained with BeRST 1, S.E.M., n=4 cells): 15%±2.1%
- resolution of individually evoked action potentials in trains (rat hippocampal neurons [3]; trains at 5, 10 and 20 Hz): visible in the BeRST 1 channel at all frequencies
- quantum yield (Φfl) ([4]; TBS/SDS aqueous buffer): 0.017
- emission maximum [4]: 683 nm
- absorbance / excitation centered at [4, 7]: 658 nm
- extinction coefficient at the incident irradiation ([4]; at incident irradiation (631 nm BeRST 1, 475 nm VF2.1.Cl)): 150,000
- quantum yield (Φfl) ([4]; methanol): 0.022
- FWHM duration of action potentials, optical record (rat hippocampal neurons [5]; electrophysiological record 1.65±0.15 ms): 1.97 ± 0.14 ms
- optical response for action potentials (rat hippocampal neurons [5]; current clamp evoked action potentials): approximately 9.5 % ΔF/F

Compound: cresyl violet
- quantum yield of reference standard [6]: 0.54

Compound: CN(C)c1ccc2c(c1)[Si](C)(C)C1=CC(=[N+](C)C)C=CC1=C2c1ccccc1S(=O)(=O)[O-] [BR, 2-(7-(Dimethylamino)-3-(dimethyliminio)-5,5-dimethyl-3,5-dihydrodibenzo[b,e]silin-10-yl) benzenesulfonate]
- emission with 390 nm excitation, share of full emission [1]: 16%
- emission with 475 nm excitation compared to excitation at 630 nm [1]: approximately 1%
- quantum yield (Φfl) ([4]; TBS/SDS aqueous buffer): 0.24
- emission maximum [4]: 681 nm
- absorbance / excitation centered at [4, 7]: 658 nm
- extinction coefficient [4, 7]: 150,000 M^−1 cm^−1
- quantum yield (Φfl) ([4]; methanol): 0.32
- change in absorbance with pH (spirocyclization) ([4]; pH 2.5 to 9): no change in absorbance
- absorbance vs. solvent dielectric constant (solvatochromism) ([4]; ε=6 (10% water/dioxane v/v) to ε=71 (90% water/dioxane v/v)): remains unchanged
